Data published in article PMC2965769 (PLoS Pathogens, 2010).
*: point of attachment. X2 = CC(C)CCC[C@@H](C)[C@H]1CC[C@H]2[C@@H]3CC=C4C[C@@H](OC(=O)CCOCCOCCOCCOCCNC(=O)C*)CC[C@]4(C)[C@H]3CC[C@]12C; X1 = CC(C)CCC[C@@H](C)[C@H]1CC[C@H]2[C@@H]3CC=C4C[C@@H](OC(=O)C*)CC[C@]4(C)[C@H]3CC[C@]12C

Tested on: NiV G/F pseudotyped viruses
Conditions: 24 h

Substance	IC50 [nM]
Ac-VALDPIDISIVLNKAKSDLEESKEWIRRSNQKLDSIGSGSGC(X1)-NH2 (N-terminus and C-terminus assumed) [V-chol]	~0.02
Ac-VALDPIDISIVLNKAKSDLEESKEWIRRSNQKLDSIGSGSGC(X2)-NH2 (N-terminus and C-terminus assumed) [V-PEG4-chol]	~0.02
